Marks after values point to notes of the source that are not given here.
Key:
[1] = log-transformed values, 7.5 mg once daily
clinical [2] = conditions: both, human, plasma, po, 5 mg
clinical [3] = conditions: human, plasma, po, 7.5 mg, Day 14, 7.5 mg once daily oral; for Cmax: mean (% CV); for half-life: t1/2, mean (% CV)
[4] = tested on: seasonal allergic rhinitis patients; assay: Double-blinded, randomized clinical trials in seasonal allergic rhinitis patients
[5] = Day 10, DL 5 mg once daily oral
[6] = steady state, Day 10, DL 5 mg once daily oral

SMILES: Oc1cnc2c(c1)CCc1cc(Cl)ccc1C2=C1CCNCC1 [3-OH desloratadine, 3-hydroxydesloratadine]
- t1/2, arithmetic mean [5]: 36.0 h
- t1/2, harmonic mean [5]: 34.0^c hr
- AUC(0-24 hr), arithmetic mean [6]: 32.3 ng·h/mL
- AUC(0-24 hr), geometric mean [6]: 30.4 ng·h/mL
- Cmax, arithmetic mean [6]: 1.99 ng/mL
- Cmax, geometric mean [6]: 1 .87 ng/mL
- Tmax, arithmetic mean [6]: 4.76 h
- Tmax, median (geometric mean) [6]: 5 h

SMILES: Clc1ccc2c(c1)CCc1cccnc1C2=C1CCNCC1 [desloratadine]
- increase in t1/2 in elderly subjects >=65 years old compared with younger subjects (5 mg once daily for 10 days): ~30%
- AUC higher in female subjects compared with male subjects [1]: 3%
- Cmax higher in female subjects compared with male subjects [1]: 10%
- concentration at 8 day (clinical [2]): 1.31 ng/mL
- concentration at 9 day (clinical [2]): 1.33 ng/mL
- Cmax (clinical [3]; female, Black women): 6.73 ng/mL
- Cmax (clinical [3]; female, White women): 5.46 ng/mL
- half-life (clinical [3]; female, Black women): 2120 min
- half-life (clinical [3]; female, White women): 1790 min
- Cmax (clinical [3]; male, White men): 6.05 ng/mL
- half-life (clinical [3]; male, Black men): 2520 min
- half-life (clinical [3]; male, White men): 2160 min
- reduction of nasal symptoms versus placebo ([4]; 5 mg): significantly (p<0.01) more effective than placebo
- total symptom scores ([4]; 5 mg once daily): significantly reduced
- AM NOW total symptom score ([4]; 24 hours after dose, entire 5 mg to 20 mg dosage range): Statistically significant (p<0.05) reductions were maintained for the full 24 hour dosing interval
- differences in effectiveness across subgroups defined by gender, age, or race ([4]; entire 5 mg to 20 mg dosage range): no significant differences
